The subject of experiment [1] is recombinant human Bcl-2-G101V protein. Kind of experiment: Bcl-2-G101V TR-FRET Assay. Conditions: ratio of biochemical IC50 Bcl-2 G101V / Bcl-2 WT. In kind it is binding. Put shortly:
(§1)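 Percent inhibition of the Bcl-2-G101V–ligand interaction was computed from the 490 nm to 520 nm emission ratio after 337 nm excitation, over increasing compound concentrations; a four-parameter logistic fit gave IC50.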
For orientation: TR-FRET usually uses a lanthanide donor and a delayed reading to cut background.

Experiment [2] deals with recombinant human Bcl-2-G101V protein (Homo sapiens (Human), UniProt P10415, G101V). Briefly: Bcl-2-G101V TR-FRET Assay. In kind it is binding. Conditions: Bcl-2 G101V mutant, TR-FRET; read-out: Biochemical assay (IC50, nM) Bcl-2 G101V. Put shortly: as §1
For experiment [3], the system named is RS4;11 (BCL-2 dependent acute lymphoblastic leukemia cell line). Kind of experiment: RS4;11 Cell Proliferation Assay. In kind it is cell-based. Conditions: Homo sapiens, RS4-11, RS4;11 cells, read-out: Cellular proliferation assay (IC50, nM) RS4. The procedure: Biological Example: RS4;11 Cell Proliferation Assay
(§2) The BCL-2 dependent acute lymphoblastic leukemia (ALL) cell line, RS4;11, was used to study the cellular potency of BCL-2 inhibitors. The cells (ATCC, CRL-1873) were cultured in RPMI-1640 complete medium (RPMI-1640 medium, HEPES (Gibco, 22400-105) supplemented with 10% fetal bovine serum (FBS) (Gibco, 10099-1441), 100 unit/ml penicillin and 100 μg/ml streptomycin (Gibco, 15140122)) and maintained in a humidified chamber at 37° C. containing 5% CO2. Each compound was serially diluted with 1 μM as the maximum concentration. To test the apoptotic effect of the compounds, the cells were seeded at 50,000 in 180 μl per well in 96-well plates and treated with 10-point dilution series of each compound for 48 hrs at 37° C. Cell viability was assessed after the treatment using CellTiter-GLO luminescent assay (Promega) according to the manufacturer's recommendations. Briefly, 30 μl of CellTiter-GLO reagent was added into 200 μl of cell culture. Mixture was agitated on an orbital shaker for 5 min to ensure cell lysis followed by 7 min incubation at room temperature to allow development and stabilization of luminescent signals, which corresponded to the quantity of ATP and thus the quantity of metabolically active cells. Luminescent signals were measured using PHERAstar FS reader (BMG). Mean IC50 values were determined with GraphPad Prism software.

The target in experiment [4] is Recombinant human Bcl-2 protein (Homo sapiens (Human), UniProt P10415). Kind of experiment: Bcl-2 TR-FRET Assay. In kind it is binding. Put shortly: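 0.05 nM Bcl-2 pre-incubated 0.5 h at room temperature with 10-point compound dilutions (top final 1, 0.1, 0.02 or 0.01 uM) in 20 mM potassium phosphate pH 7.5, 50 mM NaCl, 1 mM EDTA, 0.05% Tween-20, 0.01% BSA; FITC-Bak peptide (0.5 nM) and anti-6His Tb cryptate added, 1 h. IC50 from four-parameter logistic fit.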

Experiment [5] deals with BCL-2 G101V knock-in cell line H96 (derive from RS4;11). Kind of experiment: Bcl 2-G101V Knock-In RS4;11 Cell Proliferation Assay. Conditions: Homo sapiens, RS4;11 Bcl-2 G101V knock-in clone H96, 48 hrs, CellTiter-GLO, read-out: Cellular proliferation assay (IC50, nM) RS4. It is filed as cell-based. The procedure: Biological Example: Bcl 2-G101V Knock-In RS4;11 Cell Proliferation Assay
(1) RS4;11 H96 Bcl 2-G101V Knock-In Cell Line Generation
Briefly, RS4;11 BCL2-G101V knock-in cell pool was generated using Crisper/Cas9 gene editing system and the BCL2-G101V knock-in single clone H96 was picked from the knock-in cell pool and validated by WES (whole exome-sequencing) and RNA-seq.
The BCL-2 dependent acute lymphoblastic leukemia (ALL) cell line, RS4;11(ATCC, CRL-1873), was cultured in RPMI-1640 complete medium (RPMI-1640 medium, HEPES (Gibco, 22400-105) supplemented with 10% fetal bovine serum (FBS) (Gibco, 10099-1441), 100 unit/ml penicillin and 100 μg/ml streptomycin (Gibco, 15140122)) and maintained in a humidified chamber at 37° C. containing 5% CO2.
To obtain BCL2-G101V knock-in cell pool, RS4;11 was co-transfected with the Cas9-gRNA which also expressed GFP label, and the Donor gene which contained the BCL2-G101V mutant sequence. After 48 hrs of electroporation, the GFP positive cells were collected through FACSAriaIII cell sorting system. Cell pool was recovered for 3 days and then cultured under 2 nM ABT-199 stress for 4 weeks. […] Then cells were plated in 96 well U-plate with 1 cell/well for 10000 wells for single clone selection. After 3-5 weeks growing, clones were successively screened by PCR sequencing. And three BCL2-G101V knock-in clones: H96, H142 and H233, have been picked out.
Three clones were validated by genome DNA and cDNA(mRNA) PCR sequencing, and BCL-2, BCL-xL and MCL-1 expression using Western Blot. The H96 clone was also validated by WES (whole exome-sequencing) and RNA-seq.
(2) Bcl 2-G101V Knock-In RS4;11 Cell Proliferation Assay
as §2, with “G101V knock-in” for “dependent acute lymphoblastic leukemia (ALL)”, “line H96 (derive from RS4;11) were” for “line, RS4;11, was”, “cells” for “cells (ATCC, CRL-1873)”, “μM or 10 μM” for “μM”, “90” for “180”, “100” for “200”
On the technique in general: Cellular ATP, detected with luciferase, serves as a proxy for viable cell number.

The target of experiment [6] is recombinant human Bcl-2 D103Y protein (Homo sapiens (Human), UniProt P10415, D103Y). Briefly: Bcl-2-D103Y Biochemical Assay (TR-FRET). It is filed as binding. Conditions: TR-FRET, FITC labeled Bak peptide. In outline:
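Recombinant human Bcl-2 D103Y binding to its ligand measured by TR-FRET (ex 337 nm, em 490/520 nm) with increasing compound concentrations. Percent inhibition from the 490/520 nm ratio; IC50 from four-parameter logistic fit.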

Where [7] appears, read: Bcl-2 wild type, TR-FRET, read-out: Biochemical assay (IC50, nM) Bcl-2 WT.

Like-named read-outs stand apart in the source and are kept apart here.

With `CC(C)c1ccccc1C1CN(S(=O)(=O)c2ccccc2)CCN1C1CC2(CCN(c3ccc(C(=O)NS(=O)(=O)c4ccc(NC[C@H]5CC[C@](C)(O)CC5)c([N+](=O)[O-])c4)c(Oc4cnc5[nH]ccc5c4)c3)CC2)C1` (stereo partly drawn) [Example 62, 2-((1H-pyrrolo[2,3-b]pyridin-5-yl)oxy)-N-((4-((((1r,4r)-4-hydroxy-4-methylcyclohexyl)methyl)amino)-3-nitrophenyl)sulfonyl)-4-(2-(2-(2-isopropylphenyl)-1-(phenylsulfonyl)piperazin-1-yl)-7-azaspiro[3.5]nonan-7-yl) benzamide], in experiment [1], the “Ratio of Bcl-2 G101V/WT” value came out at 39.4. Moreover, the IC50 turned out to be 13 nM in experiment [2], 2.4 nM in experiment [3], 0.33 nM in experiment [4] (setting [7]) and 28.4 nM in experiment [5].

Turning to `COc1cc(CN2CCN(C3CC4(C3)CN(c3ccc(C(=O)NS(=O)(=O)c5ccc(NC[C@H]6CC[C@](C)(O)CC6)c([N+](=O)[O-])c5)c(Oc5cnc6[nH]ccc6c5)c3)C4)[C@H](c3ccccc3C(C)C)C2)cc2c1OCCC2(C)C` [Example 334], the “Ratio of Bcl-2 G101V/WT” value in experiment [1] stood at 2.8. Further, the IC50 in experiment [2] is 0.33 nM; in experiment [3] it was 0.17 nM; in experiment [4] (setting [7]) it was 0.12 nM; in experiment [5], 0.65 nM.

For the compound `COc1ccc(CN2CCN(C3CC4(CCN(c5ccc(C(=O)NS(=O)(=O)c6ccc(NCC7CCOCC7)c([N+](=O)[O-])c6)c(Oc6cnc7[nH]ccc7c6)c5)CC4)C3)C(c3ccccc3C)C2)cc1` (stereo not drawn) [Example 38], the “Ratio of Bcl-2 G101V/WT” value in experiment [1] turned out to be 77.4. For the same compound, the IC50 worked out at 4.1 nM in experiment [2], 2.5 nM in experiment [3], 0.053 nM in experiment [4] (setting [7]) and 37.5 nM in experiment [5].

In the case of `COc1cc(CN2CCN(C3CC4(C3)CN(c3ccc(C(=O)NS(=O)(=O)c5ccc(NC[C@H]6CC[C@](C)(O)CC6)c([N+](=O)[O-])c5)c(Oc5cnc6[nH]cc(F)c6c5)c3)C4)[C@H](c3ccccc3C(C)C)C2)ccc1C1CCC1` [Example 341, 4-(6-((R)-4-(4-cyclobutyl-3-methoxybenzyl)-2-(2-isopropylphenyl)piperazin-1-yl)-2-azaspiro[3.3]heptan-2-yl)-2-((3-fluoro-1H-pyrrolo[2,3-b]pyridin-5-yl)oxy)-N-((4-((((1r,4r)-4-hydroxy-4-methylcyclohexyl)methyl)amino)-3-nitrophenyl)sulfonyl)benzamide], the “Ratio of Bcl-2 G101V/WT” value in experiment [1] amounted to 2.8. Further, the IC50 in experiment [2] turned out to be 4.5 nM; in experiment [3] it was 0.12 nM; in experiment [4] (setting [7]), 1.6 nM; in experiment [5], 0.68 nM.

As to `[2H]C([2H])([2H])Oc1ccc(CN2CCN(C3CC4(CCN(c5ccc(C(=O)NS(=O)(=O)c6ccc(NC[C@H]7CC[C@](C)(O)CC7)c([N+](=O)[O-])c6)c(Oc6cnc7[nH]cc(Cl)c7c6)c5)CC4)C3)[C@H](c3ccccc3C(C)C)C2)cc1OC([2H])([2H])[2H]` [Example 250, 4-(2-((R)-4-(3,4-bis(methoxy-d3)benzyl)-2-(2-isopropylphenyl)piperazin-1-yl)-7-azaspiro[3.5]nonan-7-yl)-2-((3-chloro-1H-pyrrolo[2,3-b]pyridin-5-yl)oxy)-N-((4-((((1r,4r)-4-hydroxy-4-methylcyclohexyl)methyl)amino)-3-nitrophenyl)sulfonyl)benzamide], the “Ratio of Bcl-2 G101V/WT” value in experiment [1] is given as 5.7. Moreover, the IC50 is 0.52 nM in experiment [2], 0.16 nM in experiment [3], 0.09 nM in experiment [4] (setting [7]) and 1.06 nM in experiment [5].

In the case of `COc1cc(CN2CCN(C3CC4(CCN(c5ccc(C(=O)NS(=O)(=O)c6ccc(NC[C@H]7CC[C@](C)(O)CC7)c([N+](=O)[O-])c6)c(Oc6cnc7[nH]ccc7c6)c5)CC4)C3)[C@H](c3ccccc3C(C)C)C2)ccc1C(F)(F)F` [Example 277, 2-((1H-pyrrolo[2,3-b]pyridin-5-yl)oxy)-N-((4-((((1r,4r)-4-hydroxy-4-methylcyclohexyl)methyl)amino)-3-nitrophenyl)sulfonyl)-4-(2-((R)-2-(2-isopropylphenyl)-4-(3-methoxy-4-(trifluoromethyl)benzyl)piperazin-1-yl)-7azaspiro [3.5]nonan-7-yl)benzamide], in experiment [1], the “Ratio of Bcl-2 G101V/WT” value came to 2.2. The IC50 was 3.2 nM in experiment [2], 0.22 nM in experiment [3], 1.4 nM in experiment [4] (setting [7]) and 1.9 nM in experiment [5].

For the compound `CC(C)c1ccccc1C1CN(Cc2cnn(C)c2)CCN1C1CC2(CCN(c3ccc(C(=O)NS(=O)(=O)c4ccc(NC[C@H]5CC[C@](C)(O)CC5)c([N+](=O)[O-])c4)c(Oc4cnc5[nH]ccc5c4)c3)CC2)C1` (single isomer, unassigned) [Example 22a, 2-((1H-pyrrolo[2,3-b]pyridin-5-yl)oxy)-N-((4-((((1r,4r)-4-hydroxy-4-methylcyclohexyl)methyl)amino)-3-nitrophenyl)sulfonyl)-4-(2-((R or S)-2-(2-isopropylphenyl)-4-((1-methyl-1H-pyrazol-4-yl)methyl)piperazin-1-yl)-7-azaspiro [3.5]nonan-7-yl)benzamide], the IC50 was 0.064 nM in experiment [2]; 0.25 nM in experiment [3]; 0.0079 nM in experiment [4] (setting [7]); 0.0079 nM in experiment [4] (wild type Bcl-2, unit inferred, read-out: Bcl-2 WT); 1.35 nM in experiment [5]; 0.041 nM in experiment [6].

The record behind these values is patent publication US20240376097A1, “BCL-2 Inhibitor” (BeiGene Ltd., priority 2020, published 2024).
